pIC50: −log10 of the molar value. Read-outs that look alike come from different tables or passages of the source.
Experiments:
[1] = molecular target: CRBN/DDB1 (Homo sapiens, UniProt Q96SW2); experiment: HTRF binding assay (displacement of Cy5-thalidomide probe from CRBN/DDB1); conditions: CRBN/DDB1 2.5 nM, Cy5-Thalidomide 100 nM, 30 min; geometric mean; read-out: HTRF_Thali_Disp_DR_geo_IC50
Outline: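 HTRF displacement of Cy5-thalidomide (100 nM) from His-tagged CRBN/DDB1 (2.5 nM) with anti-His Tb cryptate in 20 mM HEPES, 20 mM NaCl, 0.2 mM TCEP, 0.2 mM EDTA, 0.005% Tween20. 10-point 1:3 series, 30 min ambient. 665/620 nm ratio fitted 4-parameter for IC50; Ki by Cheng-Prusoff from geometric-mean IC50.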

[2] = test system: CW2 cell line; experiment: Growth inhibition, CyQUANT Direct Cell Proliferation Assay, CW2; type: cell-based; conditions: Homo sapiens
Protocol: (§1) SKCO1, LS180, and LS174T cell lines were purchased from ATCC. CW2 cell line was purchased from Riken. GP2D cell line was purchased from Sigma/ECACC. All cell lines were cultured in manufacturer's recommended media at 37° C., 5% CO2. Briefly, cells were suspended in 200 μL of media and seeded at 300 to 1,800 cells per well in tissue culture treated 96-well plates with black walls and clear bottom. Plates were incubated overnight and initial (To) read was performed the following day using CyQUANT Direct Cell Proliferation Assay Kit (Thermo Fisher Scientific) according to manufacturer's protocol. All compounds were solubilized in DMSO and prepared at 3-fold serial dilution, using 9 points starting at 30 μM as highest concentration, administered to cells and incubated for 120 to 168 hours, at which point CyQUANT assay measurement was performed using Acumen Cellista instrument (Ex/Em 480/520 nm). Media-only wells were used as blank, and 0.3% DMSO was used as DMSO-treated cell control. Growth inhibition (percent response) was calculated using the following formula in Excel: “=if ([Compound treated Day N]>[Untreated Day 0, AVG], ([Compound treated Day N]−[Untreated Day 0, AVG])/([Untreated Day N]−[Untreated Day 0, AVG])*100, ([Compound Treated Day N]−[Untreated Day 0, AVG])/([Untreated Day 0, AVG])*100)”. GI50 is the response corresponding to the 50% of untreated control.
(§2) GI50 data are reported in Tables 4a, 4b, 4c, 4d, and 4e for compounds in Table 1. In Tables 4a, 4b, 4c, 4d, and 4e below, According to the code, A represents a GI50 value of ≤0.1 μM, B represents a GI50 value>0.1 μM and ≤1 μM, C represents an GI50 value>1 μM.

[3] = test system: LS174T cell line; experiment: Growth inhibition, CyQUANT Direct Cell Proliferation Assay, LS174T; type: cell-based; conditions: Homo sapiens
Protocol: as §1, §2

[4] = test system: GP2D cell line; experiment: Growth inhibition, CyQUANT Direct Cell Proliferation Assay, GP2D; type: cell-based
Protocol: as §1, §2

[5] = test system: SKCO1 cell line; experiment: Growth inhibition, CyQUANT Direct Cell Proliferation Assay, SKCO1; type: cell-based; conditions: Homo sapiens
Protocol: as §1, §2

[6] = test system: LS180 cell line; experiment: Growth inhibition, CyQUANT Direct Cell Proliferation Assay, LS180; type: cell-based; conditions: Homo sapiens
Protocol: as §1, §2

[7] = molecular target: T1, CK1α (Homo sapiens, UniProt P48729); experiment: CK1α NanoBit Assay (HiBiT-tagged CSNK1A1, HEK293 clonal lines); type: cell-based; conditions: HEK293 HiBiT-CSNK1A1/LgBiT cells, 24 h incubation
T1 construct: HEK293 clonal lines with CRISPR KI HiBiT tag on CSNK1A1
Outline: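 HEK293 clones carrying a CRISPR knock-in HiBiT tag on CSNK1A1 and stably expressing LgBiT are treated with compound for 24 hours at 37° C, 5% CO2, then read by luminescence. Response is normalized as 100*(S−N)/(P−N) against plate negative and positive controls, and DC50 values are derived.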

[8] = CW-2, CW2, 120 to 168 hours, read-out: CW2 GI50
[9] = 120 to 168 hours, read-out: LS174T GI50
[10] = GP2D, 120 to 168 hours, read-out: GP2D GI50
[11] = SK-CO-1, SKCO1, 120 to 168 hours, read-out: SKCO1 GI50
[12] = LS180, 120 to 168 hours, read-out: LS180 GI50
[13] = SK-CO-1, read-out: SKCO1 GI50 (μM)
[14] = LS180, read-out: LS180 GI50 (μM)

Sequence of CRBN/DDB1 (Q96SW2 whole entry, species assumed): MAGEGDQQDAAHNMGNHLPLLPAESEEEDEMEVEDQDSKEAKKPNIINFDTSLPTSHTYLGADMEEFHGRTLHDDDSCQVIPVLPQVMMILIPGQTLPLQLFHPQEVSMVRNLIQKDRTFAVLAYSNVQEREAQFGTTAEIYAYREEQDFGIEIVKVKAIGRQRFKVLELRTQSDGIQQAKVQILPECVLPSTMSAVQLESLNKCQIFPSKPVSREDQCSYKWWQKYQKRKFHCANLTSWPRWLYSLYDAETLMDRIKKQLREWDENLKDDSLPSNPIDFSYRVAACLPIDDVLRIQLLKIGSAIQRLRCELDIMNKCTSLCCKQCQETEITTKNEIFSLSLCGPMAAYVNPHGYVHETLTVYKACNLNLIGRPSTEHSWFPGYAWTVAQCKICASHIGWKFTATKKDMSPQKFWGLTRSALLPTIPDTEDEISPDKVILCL
Sequence of CRBN/DDB1 (Q16531 whole entry partner, species assumed): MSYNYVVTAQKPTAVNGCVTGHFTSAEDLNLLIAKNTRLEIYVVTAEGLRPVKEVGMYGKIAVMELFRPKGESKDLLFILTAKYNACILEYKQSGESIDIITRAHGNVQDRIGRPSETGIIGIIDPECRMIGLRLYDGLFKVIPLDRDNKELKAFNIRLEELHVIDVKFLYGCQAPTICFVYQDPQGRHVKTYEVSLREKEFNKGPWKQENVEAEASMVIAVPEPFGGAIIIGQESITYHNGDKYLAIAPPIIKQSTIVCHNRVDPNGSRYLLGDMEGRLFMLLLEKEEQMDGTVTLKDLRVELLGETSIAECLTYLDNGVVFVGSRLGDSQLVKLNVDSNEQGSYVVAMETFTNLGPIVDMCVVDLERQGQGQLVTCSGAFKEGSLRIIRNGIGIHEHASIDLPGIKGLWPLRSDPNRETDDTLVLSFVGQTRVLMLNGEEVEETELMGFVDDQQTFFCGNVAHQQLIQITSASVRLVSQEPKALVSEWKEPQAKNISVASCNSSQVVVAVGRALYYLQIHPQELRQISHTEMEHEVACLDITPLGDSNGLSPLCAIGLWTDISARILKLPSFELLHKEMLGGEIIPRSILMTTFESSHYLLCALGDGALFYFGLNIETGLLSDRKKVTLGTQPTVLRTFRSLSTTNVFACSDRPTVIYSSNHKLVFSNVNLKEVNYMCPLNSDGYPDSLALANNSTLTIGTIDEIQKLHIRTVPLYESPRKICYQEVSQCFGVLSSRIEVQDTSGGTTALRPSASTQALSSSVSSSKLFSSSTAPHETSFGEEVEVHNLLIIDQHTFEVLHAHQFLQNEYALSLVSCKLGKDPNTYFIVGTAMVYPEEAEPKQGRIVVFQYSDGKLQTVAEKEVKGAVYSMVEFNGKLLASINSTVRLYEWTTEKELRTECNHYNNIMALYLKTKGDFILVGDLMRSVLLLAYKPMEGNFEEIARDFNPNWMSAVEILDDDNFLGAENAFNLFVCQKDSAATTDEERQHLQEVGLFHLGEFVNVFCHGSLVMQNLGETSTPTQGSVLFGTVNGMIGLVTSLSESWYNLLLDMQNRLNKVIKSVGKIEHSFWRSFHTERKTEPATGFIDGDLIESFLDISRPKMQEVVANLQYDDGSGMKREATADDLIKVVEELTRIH
T1 sequence (P48729 whole entry): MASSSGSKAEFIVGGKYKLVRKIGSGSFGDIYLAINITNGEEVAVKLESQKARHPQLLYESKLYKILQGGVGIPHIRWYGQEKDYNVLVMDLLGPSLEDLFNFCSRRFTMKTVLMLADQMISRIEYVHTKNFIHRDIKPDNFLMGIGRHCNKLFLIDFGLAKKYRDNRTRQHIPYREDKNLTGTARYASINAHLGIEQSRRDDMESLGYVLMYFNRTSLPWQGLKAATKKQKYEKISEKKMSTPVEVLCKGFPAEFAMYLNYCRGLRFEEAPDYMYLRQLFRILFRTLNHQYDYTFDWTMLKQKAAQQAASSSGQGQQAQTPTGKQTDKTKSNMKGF
T1 sequence (Q96SW2 whole entry, further chain): as the sequence (Q96SW2 whole entry, species assumed) above
T1 sequence (Q16531 2-1140 partner limits assumed): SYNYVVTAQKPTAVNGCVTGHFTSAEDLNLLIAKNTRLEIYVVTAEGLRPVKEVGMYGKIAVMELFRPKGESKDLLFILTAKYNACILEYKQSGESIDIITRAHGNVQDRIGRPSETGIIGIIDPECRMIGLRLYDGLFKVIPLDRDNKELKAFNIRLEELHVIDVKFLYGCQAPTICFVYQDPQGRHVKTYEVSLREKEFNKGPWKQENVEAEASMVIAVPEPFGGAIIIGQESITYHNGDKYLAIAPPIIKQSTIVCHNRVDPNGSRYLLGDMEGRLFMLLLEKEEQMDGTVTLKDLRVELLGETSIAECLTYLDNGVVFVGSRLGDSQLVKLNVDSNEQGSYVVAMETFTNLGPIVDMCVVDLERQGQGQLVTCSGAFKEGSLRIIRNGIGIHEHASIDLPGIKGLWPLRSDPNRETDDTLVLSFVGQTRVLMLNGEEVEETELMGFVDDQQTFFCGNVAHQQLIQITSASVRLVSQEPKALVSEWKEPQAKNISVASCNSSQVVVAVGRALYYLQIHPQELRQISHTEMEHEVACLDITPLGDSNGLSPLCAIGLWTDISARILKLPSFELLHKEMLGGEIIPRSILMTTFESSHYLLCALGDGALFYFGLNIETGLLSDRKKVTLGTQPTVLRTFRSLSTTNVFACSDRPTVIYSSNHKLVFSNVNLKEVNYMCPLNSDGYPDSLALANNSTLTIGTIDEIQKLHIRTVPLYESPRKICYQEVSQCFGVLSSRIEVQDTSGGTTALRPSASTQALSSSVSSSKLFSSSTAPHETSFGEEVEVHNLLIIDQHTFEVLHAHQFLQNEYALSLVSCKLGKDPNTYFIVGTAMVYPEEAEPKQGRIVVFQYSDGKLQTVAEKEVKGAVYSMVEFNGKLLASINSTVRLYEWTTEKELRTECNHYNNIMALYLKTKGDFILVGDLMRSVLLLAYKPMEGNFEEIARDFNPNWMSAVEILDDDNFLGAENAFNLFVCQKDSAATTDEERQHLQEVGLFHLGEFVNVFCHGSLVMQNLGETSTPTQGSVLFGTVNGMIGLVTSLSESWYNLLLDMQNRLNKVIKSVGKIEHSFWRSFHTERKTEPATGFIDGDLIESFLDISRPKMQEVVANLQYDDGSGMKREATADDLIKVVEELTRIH

pIC50 [1] | GI50 [5, 11] [µM] | DC50 [7] [µM] | SMILES | GI50 [2, 8] [µM] | GI50 [3, 9] [µM] | GI50 [4, 10] [µM] | GI50 [6, 12] [µM] | GI50 ([2]; CW-2, read-out: CW2 GI50 (μM)) [µM] | GI50 ([3]; read-out: LS174T GI50 (μM)) [µM] | GI50 ([4]; GP2d, read-out: GP2D GI50 (μM)) [µM] | GI50 [5, 13] [µM] | GI50 [6, 14] [µM]
> 7.00 | 0.1 to 1 | < 0.1 | N#Cc1cccc2c1CCN2C(=O)Nc1ccc2c(c1)CN(C1CCC(=O)NC1=O)C2=O (stereo not drawn) [Compound 148, 4-cyano-N-(2-(2,6-dioxopiperidin-3-yl)-1-oxoisoindolin-5-yl)indoline-1-carboxamide] | 0.1 to 1 | 0.1 to 1 | 0.1 to 1 | 0.1 to 1 |  |  |  |  | 
6.00 to 7.00 | < 0.1 | < 0.1 | COCc1cccc2c1CCN2C(=O)Nc1ccc2c(c1)CN(C1CCC(=O)NC1=O)C2=O (stereo not drawn) [Compound 341] | 0.1 to 1 | 0.1 to 1 | < 0.1 | 0.1 to 1 |  |  |  |  | 
6.00 to 7.00 | < 0.1 | < 0.1 | C[C@H]1CN(C(=O)Nc2ccc3c(c2)CN(C2CCC(=O)NC2=O)C3=O)c2ccccc21 (stereo partly drawn) [Compound 284] | < 0.1 | < 0.1 | 0.1 to 1 | 0.1 to 1 |  |  |  |  | 
6.00 to 7.00 | 0.1 to 1 | < 0.1 | COC[C@H]1Cc2c(C3CC3)cccc2N1C(=O)Nc1ccc2c(c1)CN(C1CCC(=O)NC1=O)C2=O (stereo partly drawn) [Compound 332, (2R)-4-cyclopropyl-N-(2-(2,6-dioxopiperidin-3-yl)-1-oxoisoindolin-5-yl)-2-(methoxymethyl)indoline-1-carboxamide] | < 0.1 | 0.1 to 1 | 0.1 to 1 | 0.1 to 1 |  |  |  |  | 
6.00 to 7.00 | < 0.1 | < 0.1 | O=C1CCC(N2Cc3cc(NC(=O)N4CC5(CCOCC5)c5ccccc54)ccc3C2=O)C(=O)N1 (stereo not drawn) [Compound 189] | < 0.1 | < 0.1 | < 0.1 | < 0.1 |  |  |  |  | 
6.00 to 7.00 | < 0.1 | < 0.1 | C[C@H]1Cc2ccccc2N1C(=O)Nc1ccc2c(c1)CN(C1CCC(=O)NC1=O)C2=O (stereo partly drawn) [Compound 101, (2S)—N-(2-(2,6-dioxopiperidin-3-yl)-1-oxoisoindolin-5-yl)-2-methylindoline-1-carboxamide] | < 0.1 | < 0.1 | < 0.1 | < 0.1 |  |  |  |  | 
6.00 to 7.00 | 0.1 to 1 | < 0.1 | O=C1CCC(N2Cc3cc(NC(=O)N4Cc5ccccc5C4)ccc3C2=O)C(=O)N1 (stereo not drawn) [Compound 106, N-(2-(2,6-dioxopiperidin-3-yl)-1-oxoisoindolin-5-yl)isoindoline-2-carboxamide] | 0.1 to 1 | > 1 | 0.1 to 1 | > 1 |  |  |  |  | 
6.00 to 7.00 | < 0.1 | < 0.1 | Cc1cccc2c1CCN2C(=O)Nc1ccc2c(c1)CN(C1CCC(=O)NC1=O)C2=O (stereo not drawn) [Compound 198, N-(2-(2,6-dioxopiperidin-3-yl)-1-oxoisoindolin-5-yl)-4-methylindoline-1-carboxamide] | < 0.1 | 0.1 to 1 | < 0.1 | 0.1 to 1 |  |  |  |  | 
6.00 to 7.00 | < 0.1 | < 0.1 | Cc1ccc2c(c1)CCN2C(=O)Nc1ccc2c(c1)CN(C1CCC(=O)NC1=O)C2=O (stereo not drawn) [Compound 214, N-(2-(2,6-dioxopiperidin-3-yl)-1-oxoisoindolin-5-yl)-5-methylindoline-1-carboxamide] | < 0.1 | 0.1 to 1 | < 0.1 | 0.1 to 1 |  |  |  |  | 
6.00 to 7.00 | < 0.1 | < 0.1 | O=C1CCC(N2Cc3cc(NC(=O)N4CCc5c4cccc5-n4cccn4)ccc3C2=O)C(=O)N1 (stereo not drawn) [Compound 340, N-(2-(2,6-dioxopiperidin-3-yl)-1-oxoisoindolin-5-yl)-4-(1H-pyrazol-1-yl)indoline-1-carboxamide] | 0.1 to 1 | < 0.1 | < 0.1 | 0.1 to 1 |  |  |  |  | 
6.00 to 7.00 | < 0.1 | < 0.1 | O=C1CCC(N2Cc3cc(NC(=O)N4CCc5ccccc54)ccc3C2=O)C(=O)N1 (stereo not drawn) [Compound 103, N-(2-(2,6-dioxopiperidin-3-yl)-1-oxoisoindolin-5-yl)indoline-1-carboxamide] | 0.1 to 1 | 0.1 to 1 | < 0.1 | 0.1 to 1 |  |  |  |  | 
6.00 to 7.00 | < 0.1 | < 0.1 | O=C1CCC(N2Cc3cc(NC(=O)N4C[C@H](C5CC5)C[C@@H]4C4CC4)ccc3C2=O)C(=O)N1 (stereo partly drawn) [Compound 256] | < 0.1 | < 0.1 | 0.1 to 1 | 0.1 to 1 |  |  |  |  | 

SMILES | pIC50 [1] | GI50 [5, 11] [µM] | DC50 [7] [µM] | GI50 [2, 8] [µM] | GI50 [3, 9] [µM] | GI50 [4, 10] [µM] | GI50 [6, 12] [µM] | GI50 ([2]; CW-2, read-out: CW2 GI50 (μM)) [µM] | GI50 ([3]; read-out: LS174T GI50 (μM)) [µM] | GI50 ([4]; GP2d, read-out: GP2D GI50 (μM)) [µM] | GI50 [5, 13] [µM] | GI50 [6, 14] [µM]
CC1Cc2ccccc2CN1C(=O)Nc1ccc2c(c1)CN(C1CCC(=O)NC1=O)C2=O (stereo not drawn) [Compound 205, N-(2-(2,6-dioxopiperidin-3-yl)-1-oxoisoindolin-5-yl)-3-methyl-3,4-dihydroisoquinoline-2(1H)-carboxamide] | 6.00 to 7.00 |  | < 0.1 |  |  |  |  | < 0.1 | 0.1 to 1 | < 0.1 | < 0.1 | 0.1 to 1
Cc1ccc2c(c1)N(C(=O)Nc1ccc3c(c1)CN(C1CCC(=O)NC1=O)C3=O)CC2 (stereo not drawn) [Compound 190, N-(2-(2,6-dioxopiperidin-3-yl)-1-oxoisoindolin-5-yl)-6-methylindoline-1-carboxamide] | 6.00 to 7.00 |  | < 0.1 |  |  |  |  | 0.1 to 1 | 0.1 to 1 | 0.1 to 1 | 0.1 to 1 | 0.1 to 1
O=C1CCC(N2Cc3cc(NC(=O)N4CCc5c4cccc5C(F)(F)F)ccc3C2=O)C(=O)N1 (stereo not drawn) [Compound 135, N-(2-(2,6-dioxopiperidin-3-yl)-1-oxoisoindolin-5-yl)-4-(trifluoromethyl)indoline-1-carboxamide] | 6.00 to 7.00 |  | < 0.1 |  |  |  |  | < 0.1 | 0.1 to 1 | < 0.1 | < 0.1 | 0.1 to 1
N#Cc1ccc2c(c1)CCN2C(=O)Nc1ccc2c(c1)CN(C1CCC(=O)NC1=O)C2=O (stereo not drawn) [Compound 142, 5-cyano-N-(2-(2,6-dioxopiperidin-3-yl)-1-oxoisoindolin-5-yl)indoline-1-carboxamide] | 6.00 to 7.00 |  | < 0.1 |  |  |  |  | > 1 | 0.1 to 1 | 0.1 to 1 | 0.1 to 1 | 0.1 to 1
O=C1CCC(N2Cc3cc(NC(=O)N4CCc5cc(C6CCC6)ccc54)ccc3C2=O)C(=O)N1 (stereo not drawn) [Compound 357, 5-cyclobutyl-N-(2-(2,6-dioxopiperidin-3-yl)-1-oxoisoindolin-5-yl)indoline-1-carboxamide] | < 6.00 |  | < 0.1 |  |  |  |  | < 0.1 | < 0.1 | < 0.1 | < 0.1 | 0.1 to 1
O=C1CCC(N2Cc3cc(NC(=O)N4CCc5cc(C(F)(F)F)ncc54)ccc3C2=O)C(=O)N1 (stereo not drawn) [Compound 287, N-(2-(2,6-dioxopiperidin-3-yl)-1-oxoisoindolin-5-yl)-5-(trifluoromethyl)-2,3-dihydro-1H-pyrrolo[2,3-c]pyridine-1-carboxamide] | 6.00 to 7.00 |  | < 0.1 |  |  |  |  | < 0.1 | < 0.1 | < 0.1 | < 0.1 | 0.1 to 1

— patent US20250171420A1 (Monte Rosa Therapeutics, Inc., priority 2022, published 2025)
